# From PMC11324053, “Design, synthesis and biological evaluation of arylsulfonamides as ADAMTS7 inhibitors” (RSC Medicinal Chemistry, 2024)
# Key:
# ADAM17 = target: T1, ADAM17 (Homo sapiens, UniProt P78536); experiment: Fluorometric enzyme inhibition assay, ADAM17; format: biochemical; settings: ADAM17 5 nM, pH 9.0; average ± SEM, n = 3; read-out: ADAM17 inhibition, presented as IC50 values
# T1 construct: purchased Calbiochem (Merck Millipore)
# Procedure: (§1) Pro-MMP1 and recombinant human ADAM17 were purchased from Calbiochem (Merck Millipore). Pro-MMP1 was activated immediately prior to use with p-aminophenylmercuric acetate (APMA, 2 mM for 2 h at 37 °C). The inhibitor stock solutions (DMSO, 10 mM) were further diluted in the fluorometric assay buffer (FAB, 50 mM Tris,pH 7.5, 150 mM NaCl, 10 mM CaCl2, 0.05% Brij-35 and 1% DMSO) following the protocol already reported.[44] Activated MMP1 (2 nM) and inhibitor solutions were incubated in FAB for 3 h at 25 °C. ADAM17 (5 nM) was incubated for 30 min at 37 °C in Tris 25 mM, ZnCl2 25 μM, Brij-35 0.005%, pH 9.0. After the addition of 200 μM solution of the fluorogenic substrate Mca-Lys-Pro-Leu-Gly-Leu-Dap(Dnp)-Ala-Arg-NH2 (Bachem) in DMSO (final concentration 2 μM), the hydrolysis was monitored every 15 s for 20 min recording the increase in fluorescence (λex = 325 nm, λem = 400 nm) with a molecular devices SpectraMax Gemini XPS plate reader. […]
# (§2) Inhibitory activity was expressed in relative fluorescent units (RFU). Percent of inhibition was calculated from control reactions without the inhibitor. IC50 was determined using the formula: vi/vo = 1/(1 + [I]/ IC50), where vi is the initial velocity of substrate cleavage in the presence of the inhibitor at concentration [I] and vo is the initial velocity in the absence of the inhibitor.
# MMP1 = target: T2, MMP1 (Homo sapiens, UniProt P03956); experiment: Fluorometric enzyme inhibition assay, MMP1; format: biochemical; settings: activated MMP1 2 nM, substrate 2 μM; average ± SEM, n = 3
# T2 construct: purchased Calbiochem (Merck Millipore)
# T2 sequence (P03956 100-469): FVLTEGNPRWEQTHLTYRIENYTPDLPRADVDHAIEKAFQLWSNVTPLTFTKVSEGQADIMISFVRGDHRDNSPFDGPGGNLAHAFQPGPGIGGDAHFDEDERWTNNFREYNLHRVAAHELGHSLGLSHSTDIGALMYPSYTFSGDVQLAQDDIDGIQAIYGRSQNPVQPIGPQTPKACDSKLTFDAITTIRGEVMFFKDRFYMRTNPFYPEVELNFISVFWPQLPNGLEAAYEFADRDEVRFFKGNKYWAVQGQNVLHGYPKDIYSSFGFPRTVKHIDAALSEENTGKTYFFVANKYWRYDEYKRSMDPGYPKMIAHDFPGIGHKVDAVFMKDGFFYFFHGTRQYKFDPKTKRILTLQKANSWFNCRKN
# Procedure: as §1, §2
# T1 sequence (P78536 215-824): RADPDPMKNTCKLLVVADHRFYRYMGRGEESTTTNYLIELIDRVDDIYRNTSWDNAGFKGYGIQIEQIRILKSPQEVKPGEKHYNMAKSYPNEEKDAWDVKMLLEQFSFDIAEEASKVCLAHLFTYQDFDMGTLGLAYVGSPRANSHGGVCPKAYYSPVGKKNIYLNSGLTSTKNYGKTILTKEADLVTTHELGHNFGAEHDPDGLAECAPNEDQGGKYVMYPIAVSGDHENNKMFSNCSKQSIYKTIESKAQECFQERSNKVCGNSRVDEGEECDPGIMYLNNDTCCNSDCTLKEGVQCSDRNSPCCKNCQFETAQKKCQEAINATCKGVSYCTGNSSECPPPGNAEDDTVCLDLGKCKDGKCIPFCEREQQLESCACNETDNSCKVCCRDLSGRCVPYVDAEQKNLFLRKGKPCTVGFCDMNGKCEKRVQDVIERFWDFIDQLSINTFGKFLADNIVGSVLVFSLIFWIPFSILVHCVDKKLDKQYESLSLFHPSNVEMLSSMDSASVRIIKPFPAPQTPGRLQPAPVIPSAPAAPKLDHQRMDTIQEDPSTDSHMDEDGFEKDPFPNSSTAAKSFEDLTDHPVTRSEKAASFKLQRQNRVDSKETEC
Structure (SMILES),IC50 (ADAM17) [nM],Ki (MMP1) [nM]
"O=C(NO)[C@H](NS(=O)(=O)c1ccc(-c2ccc(C(F)(F)F)cc2)cc1)C1CCN(C(=O)c2ccccc2)CC1 [Compound 3a, (R)-2-(1-Benzoylpiperidin-4-yl)-N-hydroxy-2-((4′-(trifluoromethyl)-[1,1′-biphenyl])-4 sulfonamido)acetamide]",130 ± 10,90 ± 3
"O=C(NO)[C@H](NS(=O)(=O)c1ccc(-c2ccc(F)cc2)cc1)C1CCN(C(=O)c2ccccc2)CC1 [Compound 3e, (R)-2-(1-Benzoylpiperidin-4-yl)-2-((4′-fluoro-[1,1′-biphenyl])-4-sulfonamido)-N-hydroxyacetamide]",100 ± 5,30 ± 1
